From patent publication US10221163B2 (priority 2015, dated 2019)

Legend:
[1] = tested on: Klebsiella pneumoniae expressing VIM-1 (IHMA599644); type: cell-based; conditions: for Klebsiella pneumoniae MITC95: VIM-1 strain IHMA599644, with imipenem 1 μg/ml, 95% inhibition of growth
Experimental: (§1) Antibiotic Potentiation Activity: Determination of Synergistic Concentration
(§2) The bacterial strains tested included the clinical strains Escherichia coli expressing NDM-1 (CLB30005, CLB30016), Serratia marcescens expressing IMP-1 (CL5741), and Klebsiella pneumoniae expressing VIM-1 (IHMA599644). Inhibitor activity was measured in the presence and absence of imipenem in a 384-well microplate.
(§3) The clinical strains CLB30016, CL5741 and IHMA599644 were grown on trypticase soy agar containing 5% sheep's blood. The bacteria on agar plates were incubated at 35° C. with humidity overnight. The following day, individual colonies from each clinical strain were picked and resuspended in 5 ml saline to attain an OD600 of […], for CLB30016, CL5741 and IHMA599644, respectively. These were further diluted 1:100 into 1.1×CAMHB and used to inoculate the test wells as described below.
(§4) Imipenem in 10 mM 3-(N-morpholino)propanesulfonic acid (MOPS, pH 7) was stored in single use aliquots at −80° C. […] On the day of the assay, 4 μl of antibiotic was added to 45 ul of bacteria followed by 1 μl of test compound and mixed by pipetting and with an orbital shaker. The concentration of antibiotic used in the assay was 1 μg/ml. Microplates were covered and incubated at 35° C. for 22 hours to 24 hours. At the end of the incubation, absorbance was determined using a spectrophotometer.

[2] = tested on: Serratia marcescens expressing IMP-1 (CL5741); type: cell-based; conditions: for Serratia marcescens MITC95: IMP-1 strain CL5741, with imipenem 1 μg/ml, 95% inhibition of growth
Experimental: as §1, §2, §3, §4

[3] = tested on: Escherichia coli expressing NDM-1 (CLB30005, CLB30016); type: cell-based; conditions: with imipenem 1 μg/ml; for Escherichia coli MITC95: NDM-1 strain, 95% inhibition of growth
Experimental: as §1, §2, §3, §4

[4] = molecular target: NDM-1 (Klebsiella pneumoniae, UniProt C7C422); assay: biochemical; type: biochemical; conditions: fluorescence assay, CCF2-FA substrate, 1 pM enzyme, 2 hours at 25° C.; read-out: NDM-1 IC50
Chain of NDM-1 (C7C422 whole entry, looked up, species assumed): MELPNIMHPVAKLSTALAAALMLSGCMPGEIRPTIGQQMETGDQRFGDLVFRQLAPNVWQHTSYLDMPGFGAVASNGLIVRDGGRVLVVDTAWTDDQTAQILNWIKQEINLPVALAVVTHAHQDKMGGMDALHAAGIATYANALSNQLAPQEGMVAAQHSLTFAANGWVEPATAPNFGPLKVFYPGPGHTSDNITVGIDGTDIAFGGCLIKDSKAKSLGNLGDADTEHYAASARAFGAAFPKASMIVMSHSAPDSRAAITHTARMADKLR
Experimental: (§5) Enzyme Activity: Determination of IC50
(§6) The Class B enzyme activities were measured in the presence of the test inhibitor in a fluorescence assay against a commercially available substrate consisting of a cephalosporin core linking 7-hydroxycoumarin to fluorescein (CCF2-FA). […] In a 384-well microplate, the test inhibitor was incubated with the metallo-β-lactamase enzyme and the substrate for 2 hours at 25° C. […] The IC50 value was determined from semi-logarithmic plots of enzyme inhibition versus inhibitor concentration, with a curve generated using a 4-parameter fit.

[5] = tested on: Pseudomonas aeruginosa efflux+ (MB9798), IMP-1; type: cell-based; set-up: Concentration of metallo-β-lactamase inhibitor which restores susceptibility of efflux + (MB9798) strain to imipenem: unit not given here; conditions: C, D serine β-lactamase inhibitor closely related to relebactam; for P. aeruginosa expressing IMP-1, efflux + (MB9798) MITC95: concentration restoring susceptibility to imipenem at 2 μg/mL in the presence of a class A; for Concentration of metallo-β-lactamase inhibitor which restores susceptibility of efflux + (MB9798) strain to imipenem: imipenem at 2 μg/mL, in the presence of a class A
From the text: (§7) The strain background was Pseudomonas aeruginosa PAO1.
(§8) The strain set was then used as a pair to determine the effect of metallo-β-lactamase inhibitors of Formula I on the MIC of imipenem and/or ceftazidime. A fixed concentration of antibiotic was included in standard microbroth MIC tests, usually at the CLSI (Clinical and Laboratory Standards Institute) breakpoint concentration. A fixed amount of a class A/C beta-lactamase inhibitor was also included to inhibit the resident Pseudomonas AmpC enzyme. A serial titration of the metallo-β-lactamase inhibitor was included and the concentration of metallo-β-lactamase inhibitor which restores susceptibility of the strain to the included antibiotic was recorded. That concentration of metallo-β-lactamase inhibitor was then compared between the two strains to determine the fold difference between the efflux+ (MB9798) and efflux− (MB9799) strains. This was taken as an indication of the extent to which the MBLi is subject to efflux.

[6] = molecular target: VIM-1 (Pseudomonas aeruginosa (strain ATCC 15692 / DSM 22644 / CIP 104116 / JCM 14847 / LMG 12228 / 1C / PRS 101 / PAO1), UniProt A0A0F7KYQ8); assay: biochemical; conditions: VIM-1 IC50, fluorescence assay, CCF2-FA substrate, 30 pM enzyme, 2 hours at 25° C.
Experimental: as §5, §6

[7] = tested on: Pseudomonas aeruginosa efflux− (MB9799), IMP-1; type: cell-based; conditions: C, D serine β-lactamase inhibitor closely related to relebactam; for P. aeruginosa expressing IMP-1, efflux − (MB9799) MITC95: concentration restoring susceptibility to imipenem at 2 μg/mL in the presence of a class A; for Concentration of metallo-β-lactamase inhibitor which restores susceptibility of efflux − (MB9799) strain to imipenem: imipenem at 2 μg/mL, in the presence of a class A
From the text: as §7, §8

[8] = molecular target: IMP-1 (Serratia marcescens, UniProt P52699); assay: biochemical; type: biochemical; conditions: fluorescence assay, CCF2-FA substrate, 2 pM enzyme, 2 hours at 25° C.; read-out: IMP-1 IC50
Chain of IMP-1 (P52699 whole entry, looked up, species assumed): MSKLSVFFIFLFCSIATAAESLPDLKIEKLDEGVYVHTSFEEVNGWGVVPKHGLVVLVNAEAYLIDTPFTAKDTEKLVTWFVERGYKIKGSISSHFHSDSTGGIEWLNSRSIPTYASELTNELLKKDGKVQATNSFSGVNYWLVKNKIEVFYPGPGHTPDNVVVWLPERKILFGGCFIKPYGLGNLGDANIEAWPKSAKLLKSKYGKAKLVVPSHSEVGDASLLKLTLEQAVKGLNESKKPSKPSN
Experimental: as §5, §6

[9] = with imipenem 1 μg/ml, 95% inhibition of bacterial growth

SMILES | Klebsiella pneumoniae expressing VIM-1 (IHMA599644) MITC95 [1, 9] [µM] | Serratia marcescens expressing IMP-1 (CL5741) MITC95 [2, 9] [µM] | Escherichia coli expressing NDM-1 (CLB30016) MITC95 ([3]; 95% inhibition of bacterial growth) [µM] | IC50 [4] [nM] | P. aeruginosa expressing IMP-1, efflux + (MB9798) MITC95 [5] [µM] | IC50 [6] [nM] | P. aeruginosa expressing IMP-1, efflux − (MB9799) MITC95 [7] [µM] | Klebsiella pneumoniae MITC95 [1] [µM] | Serratia marcescens MITC95 [2] [µM] | Escherichia coli MITC95 [3] [µM] | IC50 [8] [nM] | Concentration of metallo-β-lactamase inhibitor which restores susceptibility of efflux + (MB9798) strain to imipenem [5] | Concentration of metallo-β-lactamase inhibitor which restores susceptibility of efflux − (MB9799) strain to imipenem [7]
Nc1nc2c(-c3ccc(S(=O)(=O)N[C@H]4C[C@H](N)C4)c(S(N)(=O)=O)c3-c3nnn[nH]3)cccc2s1.O=C(O)C(F)(F)F [Example 98, (1r,3r)-3-(4-(2-aminobenzo[d]thiazol-4-yl)-2-sulfamoyl-3-(1H-tetrazol-5-yl)phenylsulfonamido)cyclobutanaminium 2,2,2-trifluoroacetate] | 2.604 | 1.563 | 1.823 | 0.0365 | 0.7813 | 0.169 | 1.042 | – | – | – | – | – | –
NCCNS(=O)(=O)c1ccc(-c2cccc3ncccc23)c(-c2nn[nH]n2)c1S(N)(=O)=O [Example 360, N1-(2-aminoethyl)-4-(quinolin-5-yl)-3-(2H-tetrazol-5-yl)benzene-1,2-disulfonamide] | – | – | – | – | 1.563 | 0.135 | 1.563 | 3.125 | 1.563 | 1.563 | – | – | –
CCOC(=O)c1sc(N)nc1-c1cccc(-c2ccc(S(=O)(=O)NC(CN)CN)c(S(N)(=O)=O)c2-c2nnn[nH]2)c1 [Example 431] | – | – | – | 0.0739 | – | – | – | 6.25 | 3.125 | 3.125 | 0.133 | 12.5 | 1.563
NCCNS(=O)(=O)c1ccc(-c2cccc3[nH]c(C4CNC4)nc23)c(-c2nn[nH]n2)c1S(N)(=O)=O [Example 443, N1-(2-aminoethyl)-4-(2-(azetidin-3-yl)-1H-benzo[d]imidazol-4-yl)-3-(2H-tetrazol-5-yl)benzene-1,2-disulfonamide] | – | – | – | 0.0814 | – | – | – | 1.172 | 1.563 | 0.7813 | 0.79 | 0.7813 | 0.7813
Nc1ccc(-c2ccc(S(=O)(=O)N[C@@H]3CCCNC3)c(S(N)(=O)=O)c2-c2nn[nH]n2)cn1 [Example 490, (R)-4-(6-aminopyridin-3-yl)-N1-(piperidin-3-yl)-3-(2H-tetrazol-5-yl)benzene-1,2-disulfonamide] | – | – | – | 0.0439 | – | – | – | 3.125 | 1.563 | 0.7813 | 0.176 | 1.563 | 1.563
Nc1ccc(-c2ccc(S(=O)(=O)N[C@H]3CCCNC3)c(S(N)(=O)=O)c2-c2nn[nH]n2)cn1 [Example 494, (S)-4-(6-aminopyridin-3-yl)-N1-(piperidin-3-yl)-3-(2H-tetrazol-5-yl)benzene-1,2-disulfonamide] | – | – | – | 0.276 | – | – | – | 3.125 | 1.563 | 0.7813 | 0.808 | 3.125 | 1.563
